Test results as given in patent US10662204B2 (PFIZER INC., priority 2018, dated 2020).

What was measured:
KRAS G12C [1] = molecular target: T1, KRAS G12C (Homo sapiens, UniProt P01116, G12C); test: Cell Activity Assay: accumulation of GDP-bound KRAS G12C in MIAPaCa-2 cells (Raf-1 RBD capture, MSD readout); type: cell-based; design: endogenous in cells; host or cells: MIAPaCa-2; conditions: 6 hours, assay limit is 30.00
In short: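 IC50 came from a 4-parameter fit of Ras signal normalized between DMSO and full-inhibition controls. Readout: lysate GTP-Ras bound to immobilized Raf-1 RBD, quantified with pan-Ras antibody and MSD electrochemiluminescence. Lysates derived from MIAPaCa-2 cells treated 6 h with serially diluted compound, 0.3% DMSO.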

KRAS G12C [2] = molecular target: T1, KRAS G12C; test: Cell Activity Assay: IC50 in H358 cells; type: cell-based; design: endogenous in cells
Protocol: Compounds presented in the present invention lead to the accumulation of the GDP bound Ras upon treatment of human cancer cell line.
The accumulation of the GDP-bound KRAS G12C in cellular environment was measured based on the principle that KRAS G12C only binds to its downstream kinase; Raf-1 (MAP Kinase Kinase Kinase), when in its active-GTP bound state. In this state, Ras binded to a domain of Raf-1 kinase referred to as the Ras Binding Domain (RBD).
Raf-1 RBD (LJIC-1988A1) was diluted to 100 ng/well in PBS and 5 μl/well was spot coated onto MSD high bind SECTOR plates (L15XB). Plates were incubated at room temperature for 1 hour on an orbital shaker. Plates were washed with PBS/0.05% Tween-20 and 50 μl/well of thawed lysate samples were added, followed by 50 μl of 1% MSD Blocker A in PBS/0.05 Tween-20 (R93BA). Plates were incubated for 1 hour on an orbital shaker and washed with PBS/0.05% Tween-20. 25 μl/well of Anti-pan-Ras Antibody (Cell Biolabs 244003) diluted 1:3000 was added in 1% MSD Blocker A solution and plates were incubated for 1 hour on an orbital shaker and washed with PBS/0.05% Tween-20. SULFO-TAG goat anti-mouse secondary antibody (MSD R32AC) was diluted 1:500 in MSD Blocker A solution and added at 25 μL/well. Plates were incubated for 1 hour on an orbital shaker and washed with PBS/0.05% Tween-20. 150 μl/well of Read Buffer T (MSD R92TC) diluted 1:3 in H2O was added and plates were read on a Meso Scale Discovery Sector Imager S600.
KRAS signal was normalized to maximum inhibition and DMSO control values, and IC50 values were generated using a 4 parameter fit of the dose response curve. The decrease in IC50 reflects that the exemplary compound lead to a higher level of accumulation of GDP-bound KRAS G12C than another exemplary compounds at specific timepoint of treatment of cancer cell line.

[3] = molecular target: T2, GDP-loaded KRAS (1-169) G12C, C51S, C80L, C118S (Homo sapiens, UniProt P01116, C118S/C51S/C80L/G12C); test: Mass Spectrometry Reactivity Assay (MSRA): covalent adduct of compound and KRAS G12C, Percent Modification; type: binding; conditions: for MSRA (% modification) 10 μM 0.25 hr / MSRA (% modification) 10 μM 0.50 hr: 10 μM compound; for MSRA (% modification) 5.0 μM 0.25 hr / MSRA (% modification) 5.0 μM 0.017 hr: 5.0 μM compound
T2 construct: GDP-loaded KRAS (1-169) G12C, C51S, C80L, C118S
In short: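 Covalent labelling is measured by intact mass: deconvoluted modified and unmodified peak intensities yield percent modification. Compound, usually 5 μM or 10 μM final, reacts at room temperature with 5 μM GDP-bound KRAS G12C (1-169, C51S/C80L/C118S) in Hepes pH 7.5/NaCl/glycerol, sampled at 1, 15, 30, 60 min.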

| SMILES | IC50 (KRAS G12C [1]) [µM] | IC50 (KRAS G12C [2]) [µM] | MSRA (% modification) 10 μM 0.25 hr [3] [%] | MSRA (% modification) 5.0 μM 0.25 hr [3] [%] | MSRA (% modification) 10 μM 0.50 hr [3] [%] | MSRA (% modification) 5.0 μM 0.017 hr [3] [%] |
| --- | --- | --- | --- | --- | --- | --- |
| C=CC(=O)N1CCN(c2nc(OC[C@@H]3CCCN3C)nc3c(Oc4c(Cl)c(F)cc5[nH]ncc45)nccc23)CC1 [Example 01H, 1-[4-(8-[(5-chloro-6-fluoro-1H-indazol-4-yl)oxy]-2-{[(2S)-1-methylpyrrolidin-2-yl]methoxy}pyrido[3,4-d]pyrimidin-4-yl)piperazin-1-yl]prop-2-en-1-one] | 0.117 | 0.191 | 81 | 66 | – | – |
| C=CC(=O)N1CCN(c2nc(N3CC(N(C)C)C3)nc3c(Oc4c(C)ccc5[nH]ncc45)nccc23)CC1 [Example 02B, 1-(4-{2-[3-(dimethylamino)azetidin-1-yl]-8-[(5-methyl-1H-indazol-4-yl)oxy]pyrido[3,4-d]pyrimidin-4-yl}piperazin-1-yl)prop-2-en-1-one] | 7.84 | 8.2 | – | – | 30 | – |
| C=CC(=O)N1CCN(c2nc(OC[C@@H]3CCCN3C)nc3c(Oc4c(C)ccc5[nH]ncc45)cccc23)CC1 [Example 07E, 1-[4-(8-[(5-methyl-1H-indazol-4-yl)oxy]-2-{[(2S)-1-methylpyrrolidin-2-yl]methoxy}quinazolin-4-yl)piperazin-1-yl]prop-2-en-1-one] | 0.23 | 0.501 | 79 | 67 | 82 | – |
| C=CC(=O)N1CCN(c2nc(OC[C@@H]3CCCN3C)nc3c(Oc4c(Cl)ccc5[nH]ncc45)nc(Cl)cc23)CC1 [Example 09G, 1-[4-(6-chloro-8-[(5-chloro-1H-indazol-4-yl)oxy]-2-{[(2S)-1-methylpyrrolidin-2-yl]methoxy}pyrido[3,4-d]pyrimidin-4-yl)piperazin-1-yl]prop-2-en-1-one] | 0.069 | 0.123 | 81 | – | – | – |
| C=CC(=O)N1CCN(c2ncnc3c(Oc4c(Cl)c(C)cc5[nH]ncc45)nccc23)CC1 [Example 11A, 1-(4-{8-[(5-chloro-6-methyl-1H-indazol-4-yl)oxy]pyrido[3,4-d]pyrimidin-4-yl}piperazin-1-yl)prop-2-en-1-one] | 0.892 | 2.56 | 44 | – | 68 | – |
| C=CC(=O)N1CCN(c2nc(OCC3CCCO3)nc3c(Oc4c(Cl)c(F)cc5[nH]ncc45)nc(Cl)cc23)CC1 (centres unmarked) [Example 11G, 1-(4-{6-chloro-8-[(5-chloro-6-fluoro-1H-indazol-4-yl)oxy]-2-(tetrahydrofuran-2-ylmethoxy)pyrido[3,4-d]pyrimidin-4-yl}piperazin-1-yl)prop-2-en-1-one] | 0.102 | 0.448 | 77 | – | – | – |
| C=CC(=O)N1CCN(c2ncnc3c(Oc4c(Cl)c(F)cc5[nH]ncc45)nc(Cl)cc23)CC1 [Example 20A, 1-(4-{6-chloro-8-[(5-chloro-6-fluoro-1H-indazol-4-yl)oxy]pyrido[3,4-d]pyrimidin-4-yl}piperazin-1-yl)prop-2-en-1-one] | 0.255 | 0.758 | 73 | 85 | 80 | – |
| C=CC(=O)N1CCN(c2nc(OC[C@@H]3C[C@H](OC)CN3C)nc3c(Oc4c(Cl)c(F)cc5[nH]ncc45)nc(Cl)cc23)CC1 [Example 20G, 1-[4-(6-chloro-8-[(5-chloro-6-fluoro-1H-indazol-4-yl)oxy]-2-{[(2S,4S)-4-methoxy-1-methylpyrrolidin-2-yl]methoxy}pyrido[3,4-d]pyrimidin-4-yl)piperazin-1-yl]prop-2-en-1-one] | 0.08 | 0.152 | 79 | – | – | 26 |

Now those with a lower IC50 (KRAS G12C [1]), led by results:

| IC50 (KRAS G12C [1]) [µM] | IC50 (KRAS G12C [2]) [µM] | MSRA (% modification) 10 μM 0.25 hr [3] [%] | MSRA (% modification) 5.0 μM 0.25 hr [3] [%] | MSRA (% modification) 10 μM 0.50 hr [3] [%] | MSRA (% modification) 5.0 μM 0.017 hr [3] [%] | SMILES |
| --- | --- | --- | --- | --- | --- | --- |
| 0.051 | 0.109 | 60 | – | – | – | C=CC(=O)N1CCN(c2nc(OC[C@@H]3CN(C)C[C@H]3OC)nc3c(Oc4c(Cl)c(F)cc5[nH]ncc45)nc(Cl)cc23)CC1 [Example 19G, 1-[4-(6-chloro-8-[(5-chloro-6-fluoro-1H-indazol-4-yl)oxy]-2-{[(3S,4S)-4-methoxy-1-methylpyrrolidin-3-yl]methoxy}pyrido[3,4-d]pyrimidin-4-yl)piperazin-1-yl]prop-2-en-1-one] |
| 0.04 | 0.06 | 82 | – | – | – | C=CC(=O)N1CCN(c2nc(OC[C@@H]3CCCN3C)nc3c(Oc4c(Cl)c(F)cc5[nH]ncc45)nc(Cl)cc23)CC1 [Example 01G, 1-[4-(6-chloro-8-[(5-chloro-6-fluoro-1H-indazol-4-yl)oxy]-2-{[(2S)-1-methylpyrrolidin-2-yl]methoxy}pyrido[3,4-d]pyrimidin-4-yl)piperazin-1-yl]prop-2-en-1-one] |
| 0.04 | – | – | – | – | 81 | [2H]C([2H])([2H])N1C[C@@H](OC)[C@H](Oc2nc(N3CCN(C(=O)C=C)CC3)c3ccnc(Oc4c(Cl)c(F)cc5[nH]ncc45)c3n2)C1 [Example 56I, 1-[4-(8-[(5-chloro-6-fluoro-1H-indazol-4-yl)oxy]-2-{[(3R,4R)-4-methoxy-1-(^2H3)methyl-pyrrolidin-3-yl]oxy}pyrido [3,4-d]pyrimidin-4-yl)piperazin-1-yl]prop-2-en-1-one] |
| 0.034 | 0.087 | 81 | 88 | 84 | 43 | C=CC(=O)N1CCN(c2nc(OC[C@H]3CN(C)C[C@@H]3OC)nc3c(Oc4c(Cl)c(F)cc5[nH]ncc45)nc(Cl)cc23)CC1 [Example 18G, 1-[4-(6-chloro-8-[(5-chloro-6-fluoro-1H-indazol-4-yl)oxy]-2-{[(3R,4R)-4-methoxy-1-methylpyrrolidin-3-yl]methoxy}pyrido[3,4-d]pyrimidin-4-yl)piperazin-1-yl]prop-2-en-1-one] |
| 0.024 | – | – | – | – | 22 | C=CC(=O)N1CCN(c2nc(O[C@@H]3CN(C)C[C@H]3C(F)(F)F)nc3c(Oc4c(Cl)c(F)cc5[nH]ncc45)nccc23)CC1 [Example 57I, 1-[4-(8-[(5-chloro-6-fluoro-1H-indazol-4-yl)oxy]-2-{[(3S,4R)-1-methyl-4-(trifluoro-methyl)pyrrolidin-3-yl]oxy}pyrido [3,4-d]pyrimidin-4-yl)piperazin-1-yl]prop-2-en-1-one] |
